Numbered stars: 1 amine (or outer) side, 2 acyl side, 3 side chain; on linkers, the order of the positions; unused ones are H or OH. Side chains are listed from the residue outwards. Peptide text beside a SMILES is read from it. * marks the point of attachment. C20 diacid = O=C(O)CCCCCCCCCCCCCCCCCCC(=O)*; γGlu = O=C(O)[C@H](CCC(=O)[*:2])N[*:1]

This passage reports EC50, solubility and IC50 results from ChEMBL document CHEMBL4420076, “Amylin and calcitonin receptor agonist” (2017).

The target in data set [1] is T1, Amylin receptor AMY3; CALCR/RAMP3 (Homo sapiens, UniProt O60896+P30988).
T1 sequence (P30988 whole entry): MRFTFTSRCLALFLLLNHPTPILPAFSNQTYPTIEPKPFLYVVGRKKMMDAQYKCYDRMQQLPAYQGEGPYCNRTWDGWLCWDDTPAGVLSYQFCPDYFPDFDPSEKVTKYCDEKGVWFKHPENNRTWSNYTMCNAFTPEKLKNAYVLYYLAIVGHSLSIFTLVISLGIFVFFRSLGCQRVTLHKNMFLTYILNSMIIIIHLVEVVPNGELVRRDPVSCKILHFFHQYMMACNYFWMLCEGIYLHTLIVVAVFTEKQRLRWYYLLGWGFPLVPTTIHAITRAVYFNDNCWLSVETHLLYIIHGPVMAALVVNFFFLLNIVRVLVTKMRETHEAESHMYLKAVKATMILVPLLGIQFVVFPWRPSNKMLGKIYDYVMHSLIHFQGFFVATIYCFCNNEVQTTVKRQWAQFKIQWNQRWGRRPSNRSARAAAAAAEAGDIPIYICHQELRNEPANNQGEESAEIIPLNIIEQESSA
T1 sequence (O60896 whole entry): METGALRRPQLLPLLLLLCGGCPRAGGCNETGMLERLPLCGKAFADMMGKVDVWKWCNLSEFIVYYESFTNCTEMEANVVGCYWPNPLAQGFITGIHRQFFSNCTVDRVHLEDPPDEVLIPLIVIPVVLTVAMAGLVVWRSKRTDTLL
As to the kind of experiment: Agonist activity at human amylin receptor expressed in BHK570 cells co-expressing RAMP3 assessed as increase in intracellular cAMP concentration incubated for 3 hrs in absence of albumin by CRE luciferase reporter gene assay. The class given is functional, cell-based.

The target in data set [2] is T2, Calcitonin receptor (Homo sapiens, UniProt P30988).
T2 sequence (P30988 whole entry): T1 sequence (P30988 whole entry)
In words: Agonist activity at human calcitonin receptor expressed in BHK570 cells assessed as increase in intracellular cAMP concentration incubated for 3 hrs in absence of albumin by CRE luciferase reporter gene assay. The class given is functional, cell-based. On the technique in general: A reporter such as luciferase makes a cellular process visible.

Data set [3] concerns the target T1, Amylin receptor AMY3; CALCR/RAMP3. As to the kind of experiment: Agonist activity at human amylin receptor expressed in BHK570 cells co-expressing RAMP3 assessed as increase in intracellular cAMP concentration incubated for 3 hrs in presence of 10% FBS by CRE luciferase reporter gene assay. Type of data set: functional, cell-based.
The target of data set [4] is T2, Calcitonin receptor. As to the kind of experiment: Agonist activity at human calcitonin receptor expressed in BHK570 cells assessed as increase in intracellular cAMP concentration incubated for 3 hrs in presence of 10% FBS by CRE luciferase reporter gene assay. The class given is functional, cell-based.
Data set [5] in a line: Solubility in 100 mM glycylglycine buffer at pH 3.0 incubated for 18 hrs by UPLC analysis. Type of data set: physicochemical.
Data set [6] can be described thus: Solubility in 100 mM glycylglycine buffer at pH 4.0 incubated for 18 hrs by UPLC analysis. Type of data set: physicochemical.
Data set [7] can be described thus: Solubility in 100 mM bistrispropane buffer at pH 6.0 incubated for 18 hrs by UPLC analysis. Type of data set: physicochemical.
Data set [8] in a line: Solubility in 100 mM glycylglycine buffer at pH 5.0 incubated for 18 hrs by UPLC analysis. Type of data set: physicochemical.
Data set [9] in a line: Solubility in 100 mM bistrispropane buffer at pH 6.5 incubated for 18 hrs by UPLC analysis. Type of data set: physicochemical.
The nature of data set [10]: Solubility in 100 mM bistrispropane buffer at pH 7.0 incubated for 18 hrs by UPLC analysis. The class given is physicochemical.
A short description of data set [11]: Solubility in 100 mM bistrispropane buffer at pH 7.5 incubated for 18 hrs by UPLC analysis. The class given is physicochemical.
Data set [12] is described as follows: Solubility in 100 mM bistrispropane buffer at pH 8.0 incubated for 18 hrs by UPLC analysis. Type of data set: physicochemical.
For data set [13], the target named is T2, Calcitonin receptor. As to the kind of experiment: Displacement of [125I]-labeled human calcitonin from human calcitonin receptor expressed in BHK tkts13 cell membranes incubated for 1 hr by scintillation proximity assay. In general terms: In a radioligand displacement assay an active substance lowers the binding of a labelled ligand.
Data set [14] has as its target T3, Amylin receptor AMY3; CALCR/RAMP3 (Rattus norvegicus, UniProt P32214+Q9JJ73).
T3 sequence (P32214 whole entry): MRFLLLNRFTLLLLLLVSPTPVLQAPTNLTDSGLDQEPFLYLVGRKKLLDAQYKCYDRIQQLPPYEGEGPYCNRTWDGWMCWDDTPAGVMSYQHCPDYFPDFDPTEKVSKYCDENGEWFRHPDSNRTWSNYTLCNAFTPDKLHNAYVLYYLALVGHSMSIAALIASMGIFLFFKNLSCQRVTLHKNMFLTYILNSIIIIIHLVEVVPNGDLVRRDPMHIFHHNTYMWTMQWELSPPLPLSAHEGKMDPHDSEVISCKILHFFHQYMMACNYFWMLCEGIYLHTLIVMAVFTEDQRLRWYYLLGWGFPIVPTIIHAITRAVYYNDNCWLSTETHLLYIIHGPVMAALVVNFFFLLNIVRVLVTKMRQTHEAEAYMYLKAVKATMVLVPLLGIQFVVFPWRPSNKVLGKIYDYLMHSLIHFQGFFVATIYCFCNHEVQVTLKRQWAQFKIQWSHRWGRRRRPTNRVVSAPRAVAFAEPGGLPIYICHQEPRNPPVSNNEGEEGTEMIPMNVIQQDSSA
T3 sequence (Q9JJ73 whole entry): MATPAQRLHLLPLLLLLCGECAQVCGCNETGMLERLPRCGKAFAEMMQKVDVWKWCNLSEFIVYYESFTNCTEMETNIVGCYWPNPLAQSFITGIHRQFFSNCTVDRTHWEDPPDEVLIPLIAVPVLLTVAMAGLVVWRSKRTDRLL
As to the kind of experiment: Displacement of [125I]-labeled rat amylin from rat amylin receptor expressed in BHK tkts13 cell membranes co-expressing RAMP3 incubated for 120 mins by scintillation proximity assay.

Data set [15] has as its target T1, Amylin receptor AMY3; CALCR/RAMP3. In words: Displacement of [125I]-labeled rat amylin from human amylin receptor expressed in BHK tkts13 whole cells co-expressing RAMP3 incubated for 60 mins by scintillation proximity assay. The class given is cell-based.

As for `CC(=O)N[C@@H](C)C(=O)N[C@@H](CO)C(=O)N[C@@H](CCC(=O)O)C(=O)N[C@@H](CC(C)C)C(=O)N[C@@H](CO)C(=O)N[C@H](C(=O)N[C@@H](C)C(=O)N[C@@H](C)C(=O)N[C@@H](CC(C)C)C(=O)NCC(=O)N[C@@H](CCCNC(=N)N)C(=O)N[C@@H](CC(C)C)C(=O)N[C@@H](CO)C(=O)N[C@@H](C)C(=O)N[C@@H](CCC(=O)O)C(=O)N[C@@H](CC(C)C)C(=O)N[C@@H](Cc1cnc[nH]1)C(=O)N[C@@H](CCCCNC(=O)CC[C@H](NC(=O)CCCCCCCCCCCCCCCCCCC(=O)O)C(=O)O)C(=O)N[C@@H](CC(C)C)C(=O)N[C@@H](C)C(=O)N[C@H](C(=O)N[C@@H](CC(C)C)C(=O)N1CCC[C@H]1C(=O)N[C@@H](CCCNC(=N)N)C(=O)N[C@H](C(=O)N[C@@H](CCC(=O)O)C(=O)N[C@H](C(=O)NCC(=O)N[C@@H](CO)C(=O)NCC(=O)N[C@@H](CO)C(=O)N1CCC[C@H]1C(N)=O)[C@@H](C)O)[C@@H](C)O)[C@@H](C)O)[C@@H](C)O` (Ac-ASELSTAALGRLSAELHK([γGlu-C20 diacid])LATLPRTETGSGSP-NH2), the EC50 (as a rule, the concentration giving half of the maximal effect) is 0.032 nM in data set [1], 0.019 nM in data set [2], 0.047 nM in data set [3] and 0.022 nM in [4]. For the same molecule, the solubility at 18 h in [5], in [6], in [7], in data set [8], in data set [9] and in data set [10] was ≥ 200 µM each time. For the same molecule, the solubility at 18 h in data set [11] and in data set [12] was ≥ 200 µM throughout. Moreover, the IC50 (as a rule, the midpoint of a concentration-inhibition curve) was 0.077 nM in data set [13] and 0.684 nM in data set [14].

On to `CC(C)C[C@H](NC(=O)[C@H](CO)NC(=O)[C@H](C)NC(=O)[C@@H](NC(=O)[C@H](CO)NC(=O)[C@H](CC(C)C)NC(=O)[C@H](CCC(=O)O)NC(=O)[C@H](CO)NC(=O)[C@H](C)NC(=O)CC[C@H](NC(=O)CCCCCCCCCCCCCCCCCCC(=O)O)C(=O)O)[C@@H](C)O)C(=O)NCC(=O)N[C@@H](CCCNC(=N)N)C(=O)N[C@@H](CC(C)C)C(=O)N[C@@H](CO)C(=O)N[C@@H](C)C(=O)N[C@@H](CCC(=O)O)C(=O)N[C@@H](CC(C)C)C(=O)N[C@@H](Cc1cnc[nH]1)C(=O)N[C@@H](CCC(=O)O)C(=O)N[C@@H](CC(C)C)C(=O)N[C@@H](CO)C(=O)N[C@H](C(=O)N[C@@H](Cc1ccc(O)cc1)C(=O)N1CCC[C@H]1C(=O)N[C@@H](CCCNC(=N)N)C(=O)N[C@H](C(=O)N[C@@H](CCC(=O)O)C(=O)N[C@H](C(=O)NCC(=O)N[C@@H](CO)C(=O)NCC(=O)N[C@@H](CO)C(=O)N[C@@H](Cc1ccc(O)cc1)C(N)=O)[C@@H](C)O)[C@@H](C)O)[C@@H](C)O` ({C20 diacid-γGlu}-ASELSTASLGRLSAELHELSTYPRTETGSGSY-NH2), for which the EC50 in data set [1] was 0.017 nM; in [2], 0.016 nM; in data set [3] it was 0.143 nM; in [4] it was 0.108 nM. Further, the solubility at 18 h in data set [5], in data set [10], in data set [11] and in data set [12] was ≥ 200 µM in each case. In addition, the IC50 in [13] was 0.1 nM; in [14], 0.046 nM; in data set [15], 3.17 nM.

In the case of `CC(C)C[C@H](NC(=O)CNC(=O)[C@H](CO)NC(=O)[C@H](C)NC(=O)CC[C@H](NC(=O)CCCCCCCCCCCCCCCCCCC(=O)O)C(=O)O)C(=O)N[C@@H](CO)C(=O)N[C@H](C(=O)N[C@@H](C)C(=O)N[C@H](C(=O)N[C@@H](CC(C)C)C(=O)NCC(=O)N[C@@H](CCCNC(=N)N)C(=O)N[C@@H](CC(C)C)C(=O)N[C@@H](CO)C(=O)N[C@@H](CCC(N)=O)C(=O)N[C@@H](CCC(=O)O)C(=O)N[C@@H](CC(C)C)C(=O)N[C@@H](Cc1cnc[nH]1)C(=O)N[C@@H](CCC(=O)O)C(=O)N[C@@H](CC(C)C)C(=O)N[C@@H](CCC(N)=O)C(=O)N[C@H](C(=O)N[C@@H](Cc1ccc(O)cc1)C(=O)N1CCC[C@H]1C(=O)N1CCC[C@H]1C(=O)N[C@H](C(=O)N[C@@H](CCC(=O)O)C(=O)N[C@H](C(=O)NCC(=O)N[C@@H](CO)C(=O)NCC(=O)N[C@H](C(=O)N[C@@H](Cc1ccc(O)cc1)C(N)=O)[C@@H](C)O)[C@@H](C)O)[C@@H](C)O)[C@@H](C)O)[C@@H](C)O)[C@@H](C)O` ({C20 diacid-γGlu}-ASGLSTATLGRLSQELHELQTYPPTETGSGTY-NH2), the concentration for a half-maximal effect (EC50) is 0.023 nM in data set [1], 0.019 nM in data set [2] and 0.077 nM in data set [4]. The solubility at 18 h in data set [5], in data set [7], in data set [8], in data set [9], in data set [10] and in data set [11] was ≥ 200 µM throughout. Also, in data set [12], the solubility (as a rule, the concentration that dissolves in the medium under given conditions) at 18 h was ≥ 200 µM. Moreover, the IC50 in [13] was 0.053 nM; in data set [14], 0.098 nM; in data set [15], 0.116 nM.

As for `CC(C)C[C@H](NC(=O)[C@H](CCCNC(=N)N)NC(=O)CNC(=O)[C@H](CC(C)C)NC(=O)[C@@H](NC(=O)[C@H](C)NC(=O)[C@@H](NC(=O)[C@H](CO)NC(=O)[C@H](CC(C)C)NC(=O)[C@H](CCC(N)=O)NC(=O)[C@H](CO)NC(=O)[C@H](C)NC(=O)CC[C@H](NC(=O)CCCCCCCCCCCCCCCCCCC(=O)O)C(=O)O)[C@@H](C)O)C(C)C)C(=O)N[C@@H](CO)C(=O)N[C@@H](CCC(N)=O)C(=O)N[C@@H](CCCNC(=N)N)C(=O)N[C@@H](CC(C)C)C(=O)N[C@@H](Cc1cnc[nH]1)C(=O)N[C@@H](CCCNC(=N)N)C(=O)N[C@@H](CC(C)C)C(=O)N[C@@H](CCC(N)=O)C(=O)N[C@H](C(=O)N[C@@H](Cc1ccc(O)cc1)C(=O)N1CCC[C@H]1C(=O)N[C@@H](CCCNC(=N)N)C(=O)N[C@H](C(=O)N[C@@H](CCC(N)=O)C(=O)N[C@H](C(=O)NCC(=O)N[C@@H](CO)C(=O)N[C@@H](CCC(N)=O)C(=O)N[C@H](C(=O)N[C@@H](Cc1ccc(O)cc1)C(N)=O)[C@@H](C)O)[C@@H](C)O)[C@@H](C)O)[C@@H](C)O` ({C20 diacid-γGlu}-ASQLSTAVLGRLSQRLHRLQTYPRTQTGSQTY-NH2), the EC50 in [1] is 0.016 nM; in data set [2], 0.015 nM; in [3] it was 0.037 nM; in data set [4], 0.05 nM. In addition, the IC50 in [13] is 0.131 nM; in [14], 1.16 nM; in data set [15] it was 3.7 nM.
